{
  "source": "patent US9119855B2",
  "about": "“Compositions and methods for treatment of the side-effects associated with administration of cancer chemotherapeutic agents” (Asymmetric Therapeutics, LLC, priority 2008, dated 2015)",
  "key": {"[1]": {"settings": "Van Acker et al.; cited from earlier work"}, "[2]": {"settings": "Van Acker et al.; cited from earlier work", "remark": "listed apart in the source"}, "in vitro": {"experiment": "in vitro", "type": "cell-based", "settings": "human", "description": "The efficacy of certain compounds as protective agents when co-administered with 5-FU was tested in cell culture. […] The relative viability of the cells was determined after 120 hours."}, "Caco-2 cells": {"system": "Caco-2 cells", "description": "5-FU was dissolved in water and added to media at 10 μM, the clinically-relevant dose. Media was changed every day with reapplication of 5-FU. After 72 hr, the cell viability was assessed and is expressed relative to a vehicle control (Caco-2, n=3)."}, "primary human skin cells": {"system": "primary human skin cells", "description": "The concentration of 5-FU was also 0.01 mM in these trials. […] The relative viability of the cells was determined after 48 hours (FIG. 7) or 72 hours (FIG. 8)."}, "[3]": {"settings": "acidic / low pH, orotate not charged (Robinson et al.); cited from earlier work"}, "[4]": {"system": "primary human epithelial cells of the gingiva (HEGP)", "experiment": "Protection of primary gingival epithelial cells from 5-FU toxicity, 72 hours (FIG. 9)", "type": "cell-based", "text": "GI columnar cells rely for growth predominantly on de novo pyrimidine synthesis from nutrients in the GI contents. Squamous cells of the oropharynx rely for growth predominantly on salvage of cell constituents of the overlying cells closer to the tissue surface."}},
  "note": "“Also recorded” adds a separate entry of the source. Read-outs that look alike come from different tables or passages of the source.",
  "data": [
    {"smiles": "Nc1nc(O)nc2nc(O)[nH]c12", "note": "[2,8-dihydroxy adenine]", "values": [
      {"measurement": "solubility", "setting": "[1]", "result": "poorly soluble"},
      {"measurement": "renal toxicity", "setting": "[2]", "result": "can cause renal stones"}
    ]},
    {"smiles": "O=c1[nH]cc(F)c(=O)[nH]1", "note": "[5-FU, 5-fluorouracil, reference compound]", "values": [
      {"measurement": "viability at 120 h, 0.01 mM", "setting": "in vitro", "result": "< 50", "unit": "%"}
    ]},
    {"smiles": "Nc1ncnc2nc[nH]c12", "note": "[adenine]", "values": [
      {"measurement": "cytoprotection against 10 μM 5-FU toxicity", "setting": "Caco-2 cells", "result": "progressively greater cytoprotection"},
      {"measurement": "excess of protective nucleobase required for quantitative protection", "setting": "Caco-2 cells; adenine alone, vs 10 μM 5-FU", "result": "~100", "unit": "×"}
    ]},
    {"smiles": "O=C(O)c1cc(=O)[nH]c(=O)[nH]1", "note": "[orotate]", "values": [
      {"measurement": "cytoprotection against 10 μM 5-FU toxicity", "setting": "Caco-2 cells", "result": "statistically insignificant cytoprotection"},
      {"measurement": "effect of adding orotate on cytoprotection by adenine", "setting": "Caco-2 cells; orotate 1.25 mM with adenine 0.0125 mM through 1.25 mM, 10 μM 5-FU (FIG. 5)", "result": "did not initially attenuate 5-FU toxicity beyond the cytoprotection provided by adenine alone"},
      {"measurement": "effect of adding orotate on cytoprotection by adenine", "setting": "Caco-2 cells; still higher concentrations of orotate with adenine 2.5 mM (FIG. 6, Results 5, 6 vs 2)", "result": "progressively greater abrogation of salvage"},
      {"measurement": "impact on skin (squamous) cell response to 5-FU exposure", "setting": "primary human skin cells", "result": "does not impact"},
      {"measurement": "absorption into the systemic circulation", "setting": "[3]", "result": "better absorbed; also recorded: absorbed at a higher rate"}
    ]},
    {"smiles": "O=c1cc[nH]c(=O)[nH]1", "note": "[uracil]", "values": [
      {"measurement": "effect on cytoprotection by adenine 2.5 mM in combination with orotate 2.5 mM", "setting": "Caco-2 cells; further addition of uracil 1.25 and 2.5 mM, 10 μM 5-FU, data not shown", "result": "reversal of the cytoprotection"},
      {"measurement": "efficacy and toxicity to primary gingival cells (HGEP)", "setting": "[4]; FIG. 9, 72 hours", "result": "effective and non-toxic"},
      {"measurement": "prevention of 5-FU toxicity", "setting": "[4]; excess of uracil together with 5-FU 10 μM", "result": "prevented 5-FU toxicity"},
      {"measurement": "protection against 5-FU toxicity", "setting": "[4]; further addition of uracil at 1.25 mM to adenine and orotate 2.5 mM each (Result Y)", "result": "significant protection"},
      {"measurement": "protection against 5-FU toxicity", "setting": "[4]; further addition of uracil at 2.5 mM to adenine and orotate 2.5 mM each (Result Z)", "result": "even more significant protection"}
    ]}
  ]
}
